Like-named read-outs stand apart in the source and are kept apart here. Bounds are passed on as bounds.

The values that follow come from publication PMC9010763 (The Journal of Biological Chemistry, 2022).

Common to all, as to type: biochemical
In experiment [1] the target is T1, SLC35B1 (Homo sapiens, UniProt P78383).
T1 construct: isoform 1, C-terminal GFP fusion (hSLC35B1-GFP)
T1 sequence (P78383 1-322): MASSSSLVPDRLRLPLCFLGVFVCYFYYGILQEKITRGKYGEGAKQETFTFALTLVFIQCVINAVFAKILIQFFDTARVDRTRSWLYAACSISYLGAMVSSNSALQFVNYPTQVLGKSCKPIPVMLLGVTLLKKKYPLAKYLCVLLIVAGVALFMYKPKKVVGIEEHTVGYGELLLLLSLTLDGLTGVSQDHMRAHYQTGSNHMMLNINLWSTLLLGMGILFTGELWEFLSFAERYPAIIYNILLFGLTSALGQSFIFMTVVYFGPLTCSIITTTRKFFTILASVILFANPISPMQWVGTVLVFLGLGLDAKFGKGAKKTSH
Put plainly: [α^[…]]ATP uptake competition and counter-exchange, purified protein in PC-liposomes.

The target of experiment [2] is T1, SLC35B1. Put plainly: inhibition of [α^[…]]ATP uptake at […], purified protein in PC-liposomes. The following applies: read-out: % inhibition at 1 mM.
Experiment [3] concerns the target T1, SLC35B1. The experiment is described as follows: inhibition of [α^[…]]ATP uptake at […]; counter-exchange and efflux, purified protein in PC-liposomes. The settings on record: read-out: % inhibition at 1 mM.
In experiment [4] the target is T1, SLC35B1. Put plainly: inhibition of [α^[…]]ATP uptake at […]; counter-exchange, purified protein in PC-liposomes. The settings on record: read-out: % inhibition at 1 mM.

On to `Nc1ncnc2c1ncn2[C@@H]1O[C@H](COP(=O)(O)OP(=O)(O)O)[C@@H](O)[C@H]1O` [ADP], for which, in experiment [1] (read-out: Ki), the Ki came out at 56.1 µM.

For `Nc1nc2c(ncn2[C@@H]2O[C@H](COP(=O)(O)OP(=O)(O)OP(=O)(O)O)[C@@H](O)[C@H]2O)c(=O)[nH]1` [GTP], the Ki in experiment [1] (read-out: Ki) came out at 275 µM.

Consider `O=c1ccn([C@@H]2O[C@H](COP(=O)(O)OP(=O)(O)O)[C@@H](O)[C@H]2O)c(=O)[nH]1` [UDP], for which the affinity in experiment [1], expressed as Ki, was 83 µM.

In the case of `Nc1ncnc2c1ncn2[C@@H]1O[C@H](COP(=O)(O)OP(=O)(O)OP(O)(O)=S)[C@@H](O)[C@H]1O` [ATPɣ[-S]], the inhibition at 1000 µM in experiment [2] is above 85%.

In the case of `Nc1nc2c(ncn2[C@@H]2O[C@H](COP(=O)(O)OP(=O)(O)O)[C@@H](O)[C@H]2O)c(=O)[nH]1` [GDP], the inhibition at 1000 µM in experiment [3] was 50 to 60%.

With `Nc1ncnc2c1ncn2[C@H]1C[C@H](O)[C@@H](COP(=O)(O)OP(=O)(O)OP(=O)(O)O)O1` [dATP], the inhibition at 1000 µM in experiment [4] was above 85%.

On to `Nc1ccn([C@@H]2O[C@H](COP(=O)(O)OP(=O)(O)OP(=O)(O)O)[C@@H](O)[C@H]2O)c(=O)n1` [CTP], for which the inhibition at 1000 µM in experiment [3] was 50 to 60%.

Turning to `O=c1ccn([C@@H]2O[C@H](COP(=O)(O)OP(=O)(O)OP(=O)(O)O)[C@@H](O)[C@H]2O)c(=O)[nH]1` [UTP], the inhibition at 1000 µM in experiment [3] was in the range of 70 to 85%.
